{"source": "patent US20030198662A1", "about": "“Transdermal administration of N-(2,5-disubstituted phenyl)-N'-(3-substituted phenyl)-N'-methyl guanidines” (priority 1999, published 2003)", "assay": "Electrotransport drug flux in automated permeation cells (zero-current passive phase, then electrotransport phase)", "type": "in vitro ADME", "conditions": "aqueous donor solution about 15 mg/mL drug HCl salt, receptor Dulbecco's phosphate buffered saline pH 7.4", "method": "Automated permeation cells used for passive permeation studies were also used for the assessment of electrotransport drug flux. The donor compartment contained the silver anode while the receptor compartment contained the silver chloride cathode. The electrodes were connected to a Maccor power source. An aqueous donor solution containing about 15 mg/mL of the drug HCl salt was utilized. The receptor solution was Dulbecco's phosphate buffered saline ([…]) pH 7.4. The first 16 hours served as a zero current passive phase after which the power source was turned on. The electrotransport phase during which a current of 0.2 mA was supplied (to result in a current density of 0.1 mA/cm^2) lasted 24 hours. Receptor solution was automatically collected every 4 hours during the passive phase and every hour during the electrotransport phase, and analyzed for drug by HPLC. Flux, as μg/cm^2h, was calculated, as was the average steady-state flux, which included data points where delivery had reached a nearly constant value.", "data": [{"smiles": "CSc1cccc(N(C)C(=N)Nc2cc(SC)ccc2Cl)c1", "note": "[CNS 5161, N-(2-chloro-5-(methylthio)phenyl)-N′-(3-(methylthio)phenyl)-N′-methyl guanidine]", "values": [{"measurement": "Average steady-state flux during electrotransport", "setting": "current 0.2 mA, current density 0.1 mA/cm^2, 24 hours", "value": "53±2.5", "unit": "μg/cm^2h"}, {"measurement": "Flux during zero-current passive phase", "setting": "initial 16 hours, zero current", "value": "about 0.02 μg/cm^2h"}]}]}
